How the values were obtained:
[1] = test system: Mice bearing FAP-positive and FAP-negative xenografts; experiment: PET/CT imaging: remaining PET activity in the mouse body; type: in vivo
Procedure: The mice were euthanized by CO2 at 4 hours p.i., and static PET scans were acquired for 30 min.
PET/CT images were acquired using β-CUBE PET scanner system (Molecubes, Gent, Belgium), with a spatial resolution of 0.85 mm and an axial field-of-view of 13 cm. Dynamic PET scans were acquired for 60 min. All PET scans were decay corrected and reconstructed into a 192×192×384 matrix by an ordered subsets maximization expectation (OSEM) algorithm using 30 iterations, a voxel size of 400×400×400 μm a 15 min per frame. CT data was used to apply attenuation correction on the PET data. The CT was imaged supine, head first, using the NanoSPECT/CTTM scanner (Bioscan Inc.). Topograms and helical CT scans of the whole mouse were first acquired using the following parameters: X-ray tube current: 177 μA, X-ray tube voltage 45 kVp, 90 seconds and 180 frames per rotation, pitch 1. CT images were reconstructed using CTReco (version r1.146), with a standard filtered back projection algorithm (exact cone beam) and post-filtered (RamLak, 100% frequency cut-off), resulting in a pixel size of 0.2 mm. Co-registered PET/CT images were visualized using maximum intensity projection (MIP) with VivoQuant software (version 4.0).

[2] = test system: HT-1080.hFAP tumor-bearing mice; experiment: Biodistribution studies in xenografted mice; type: in vivo; details: i.v.; for Biodistribution: HT-1080.wt: FAP-negative tumor; for Biodistribution: HT-1080.hFAP: FAP-positive tumor
Procedure: The tumors were allowed to grow to an average volume of 100-200 mm^3.
Biodistribution Studies: The xenografted mice were randomized (n=5 per group) and injected intravenously via the tail vein with the ^61Cu-labeled radioligands (100 μL, […], 0.8-1MBq). Mice were euthanized 1 h and 4 h p.i. by CO2 asphyxiation. Organs of interest and blood were collected, rinsed of excess blood, blotted dry, weighed, and counted in a […]. The samples were counted against a suitably diluted aliquot of the injected solution as the standard and the results are expressed as the percentage of the injected activity per gram of tissue (% I.A./g) ±SD.

[3] = test system: HT-1080.hFAP (FAP-positive) cells; experiment: In vitro cellular uptake (cell surface-bound and internalized fractions); type: cell-based, human; details: 37° C., specific uptake (HT-1080.wt subtracted)
Procedure: The cellular uptake was studied in vitro using intact cells seeded in 6-well plates overnight. […] At each investigated time point, the medium containing the unbound (free) radiotracer was removed, followed by two washing steps with ice-cold phosphate-buffered saline. The cells were then treated 2×5 min with ice-cold glycine solution (0.05 M, pH 2.8) to detach the cell surface-bound radiotracer (acid released). Afterwards, the cells containing the internalized radiotracer were detached with 1 M NaOH at 37° C. and collected for measurement. The amount of specific cell surface-bound and internalized radiotracer is expressed as percentage of the total applied activity, after subtracting the non-specific values.
The cells were then preconditioned in 360 μL of assay medium (MEM medium without supplements) at 37° C. for 60 min. 40 μL of a 2 nM solution of ^61Cu-labeled radioligand was added and the cells were incubated at 37° C. The cellular uptake was interrupted at different time points (15 min, 1 hour and 4 hours), by washing twice with ice-cold PBS. Cell surface-bound radioligand was obtained by washing cells twice with ice-cold glycine buffer (pH 2.8), followed by a collection of the internalized fraction with 1 M NaOH. The activity in each fraction was measured in a […] (Cobra II).

Retention in the body (remaining PET activity 4 h p.i.), in words [1]: highest retention in the body
Biodistribution: Intestine ([2]; 1 hour p.i.): 1.0 ± 0.4 % I.A./g
Biodistribution: Liver ([2]; 1 hour p.i.): 0.9 ± 0.0 % I.A./g
Biodistribution: Pancreas ([2]; 1 hour p.i.): 2.0 ± 0.2 % I.A./g
Biodistribution: Spleen ([2]; 1 hour p.i.): 0.7 ± 0.1 % I.A./g
Biodistribution: Stomach ([2]; 1 hour p.i.): 1.0 ± 0.1 % I.A./g
Biodistribution: Adrenal ([2]; 4 hours p.i.): 2.0 ± 0.2 % I.A./g
Biodistribution: Heart ([2]; 4 hours p.i.): 0.7 ± 0.1 % I.A./g
Biodistribution: Intestine ([2]; 4 hours p.i.): 0.6 ± 0.2 % I.A./g
Biodistribution: Kidneys ([2]; 4 hours p.i.): 1.0 ± 0.1 % I.A./g
Biodistribution: Liver ([2]; 4 hours p.i.): 0.8 ± 0.2 % I.A./g
Biodistribution: Lung ([2]; 4 hours p.i.): 1.0 ± 0.1 % I.A./g
Biodistribution: Spleen ([2]; 4 hours p.i.): 0.5 ± 0.1 % I.A./g
Biodistribution: Stomach ([2]; 4 hours p.i.): 0.6 ± 0.1 % I.A./g
Biodistribution: HT-1080.wt ([2]; 1 hour p.i.): 3.1 ± 0.0 % I.A./g
Biodistribution: HT-1080.wt ([2]; 4 hours p.i.): 2.5 ± 0.2 % I.A./g
Biodistribution: HT-1080.hFAP ([2]; 1 hour p.i.): 8.4 ± 1.4 % I.A./g
Biodistribution: HT-1080.hFAP ([2]; 4 hours p.i.): 7.7 ± 0.4 % I.A./g
Compound: CN(CCCN1CCN(C(=O)CCC(C(=O)O)N2CCN(CC(=O)[O-])CCN(CC(=O)[O-])CC2)CC1)c1ccc2nccc(C(=O)NCC(=O)N3CC(F)(F)CC3C#N)c2c1.[61Cu+2] (stereo not drawn) [[^61Cu]Cu-NODAGA-FAPI-46, reference compound]
Cell surface fraction ([3]; 15 min): 0.9 ± 0.3 % of the applied activity
Internalized fraction ([3]; 30 min): 24.3 ± 2.3 % of the applied activity
Cell surface fraction ([3]; 60 min): 1.2 ± 0.4 % of the applied activity
Internalized fraction ([3]; 60 min): 36.1 ± 1.6 % of the applied activity
Cell surface fraction ([3]; 240 min): 1.7 ± 0.4 % of the applied activity
Internalized fraction ([3]; 240 min): 50.0 ± 6.0 % of the applied activity
